Settings: Hot wire method

FC(F)(F)/C=C/Cl [(E)-1-chloro-3,3,3-trifluoroprop-1-ene]
Settings | thermal conductivity [W/m/K]
323.1 K, 34268 kPa, Liquid | 0.09193
323.1 K, 66598 kPa, Liquid | 0.1029
323.11 K, 123 kPa, Gas | 0.01239
323.13 K, 141 kPa, Gas | 0.01226
323.13 K, 436 kPa, Liquid | 0.07562
323.13 K, 34301 kPa, Liquid | 0.09204
323.15 K, 9819 kPa, Liquid | 0.08053
323.15 K, 56133 kPa, Liquid | 0.09946
323.17 K, 162 kPa, Gas | 0.01242
323.18 K, 25073 kPa, Liquid | 0.08808
323.2 K, 191 kPa, Gas | 0.01256
323.22 K, 5184 kPa, Liquid | 0.07808
323.24 K, 99 kPa, Gas | 0.01215
323.24 K, 43827 kPa, Liquid | 0.09508
323.25 K, 99 kPa, Gas | 0.01276
323.25 K, 164 kPa, Gas | 0.01258
323.26 K, 123 kPa, Gas | 0.01268
323.26 K, 43810 kPa, Liquid | 0.0946
323.3 K, 34263 kPa, Liquid | 0.09159
323.32 K, 34298 kPa, Liquid | 0.09169
323.33 K, 446 kPa, Liquid | 0.07514
323.39 K, 25067 kPa, Liquid | 0.08782
323.41 K, 123 kPa, Gas | 0.01233
323.45 K, 161 kPa, Gas | 0.01242
323.47 K, 142 kPa, Gas | 0.0127
323.52 K, 66583 kPa, Liquid | 0.1032
323.54 K, 259 kPa, Gas | 0.01261
323.54 K, 66602 kPa, Liquid | 0.103
323.57 K, 16961 kPa, Liquid | 0.08443
323.6 K, 56150 kPa, Liquid | 0.09972
323.64 K, 165 kPa, Gas | 0.01259
323.64 K, 189 kPa, Gas | 0.01262
323.65 K, 123 kPa, Gas | 0.01276
323.66 K, 9815 kPa, Liquid | 0.08057
323.69 K, 99 kPa, Gas | 0.01287
323.72 K, 123 kPa, Gas | 0.01229
323.73 K, 66589 kPa, Liquid | 0.103
323.75 K, 66615 kPa, Liquid | 0.1027
323.76 K, 5178 kPa, Liquid | 0.07818
323.77 K, 160 kPa, Gas | 0.01238
323.77 K, 16953 kPa, Liquid | 0.08413
323.81 K, 56140 kPa, Liquid | 0.09958
323.87 K, 438 kPa, Liquid | 0.07537
323.88 K, 9798 kPa, Liquid | 0.08054
323.92 K, 142 kPa, Gas | 0.01276
323.98 K, 5181 kPa, Liquid | 0.07788
323.99 K, 260 kPa, Gas | 0.01261
324.07 K, 165 kPa, Gas | 0.01273
324.09 K, 123 kPa, Gas | 0.0128
324.11 K, 428 kPa, Liquid | 0.07518
324.12 K, 188 kPa, Gas | 0.01262
324.17 K, 99 kPa, Gas | 0.01287
324.41 K, 142 kPa, Gas | 0.01275
324.45 K, 260 kPa, Gas | 0.01268
324.52 K, 165 kPa, Gas | 0.01271
324.55 K, 123 kPa, Gas | 0.01276
324.61 K, 187 kPa, Gas | 0.01271
324.68 K, 99 kPa, Gas | 0.0129
324.93 K, 141 kPa, Gas | 0.01279
324.96 K, 260 kPa, Gas | 0.01269
324.99 K, 163 kPa, Gas | 0.01274
325.04 K, 123 kPa, Gas | 0.01286
325.13 K, 186 kPa, Gas | 0.01278
325.22 K, 99 kPa, Gas | 0.01286
325.47 K, 141 kPa, Gas | 0.01283
325.5 K, 161 kPa, Gas | 0.01276
325.56 K, 123 kPa, Gas | 0.01283
325.79 K, 99 kPa, Gas | 0.01295
326.04 K, 160 kPa, Gas | 0.01284
326.1 K, 123 kPa, Gas | 0.01295
331.18 K, 333 kPa, Gas | 0.01373
331.42 K, 333 kPa, Gas | 0.01368
331.5 K, 333 kPa, Gas | 0.01298
331.53 K, 115 kPa, Gas | 0.01325
331.54 K, 333 kPa, Gas | 0.01297
331.58 K, 329 kPa, Gas | 0.01333
331.68 K, 333 kPa, Gas | 0.01367
331.75 K, 257 kPa, Gas | 0.01341
331.8 K, 182 kPa, Gas | 0.01323
331.82 K, 332 kPa, Gas | 0.01319
331.83 K, 113 kPa, Gas | 0.01306
331.85 K, 115 kPa, Gas | 0.01325
331.86 K, 333 kPa, Gas | 0.01297
331.89 K, 328 kPa, Gas | 0.01301
331.9 K, 328 kPa, Gas | 0.01382
331.94 K, 333 kPa, Gas | 0.01367
331.97 K, 263 kPa, Gas | 0.01309
332 K, 256 kPa, Gas | 0.01333
332.04 K, 97 kPa, Gas | 0.01346
332.06 K, 181 kPa, Gas | 0.01314
332.08 K, 113 kPa, Gas | 0.01302
332.08 K, 186 kPa, Gas | 0.01344
332.12 K, 331 kPa, Gas | 0.01303
332.14 K, 328 kPa, Gas | 0.01379
332.18 K, 114 kPa, Gas | 0.01353
332.2 K, 328 kPa, Gas | 0.01299
332.25 K, 255 kPa, Gas | 0.01328
332.28 K, 333 kPa, Gas | 0.013
332.3 K, 262 kPa, Gas | 0.01306
332.33 K, 180 kPa, Gas | 0.01309
332.36 K, 113 kPa, Gas | 0.01297
332.37 K, 97 kPa, Gas | 0.01361
332.4 K, 328 kPa, Gas | 0.01373
332.42 K, 185 kPa, Gas | 0.01339
332.52 K, 253 kPa, Gas | 0.01329
332.54 K, 113 kPa, Gas | 0.01346
332.56 K, 97 kPa, Gas | 0.01298
332.56 K, 328 kPa, Gas | 0.01325
332.63 K, 178 kPa, Gas | 0.01301
332.63 K, 333 kPa, Gas | 0.01323
332.64 K, 112 kPa, Gas | 0.01294
332.66 K, 260 kPa, Gas | 0.01314
332.67 K, 328 kPa, Gas | 0.01373
332.71 K, 98 kPa, Gas | 0.01354
332.81 K, 183 kPa, Gas | 0.0135
332.81 K, 252 kPa, Gas | 0.01326
332.84 K, 97 kPa, Gas | 0.01292
332.93 K, 177 kPa, Gas | 0.01297
332.95 K, 113 kPa, Gas | 0.01357
332.95 K, 328 kPa, Gas | 0.0132
332.96 K, 113 kPa, Gas | 0.01287
333.06 K, 258 kPa, Gas | 0.01325
333.08 K, 97 kPa, Gas | 0.01356
333.08 K, 333 kPa, Gas | 0.01308
333.14 K, 97 kPa, Gas | 0.01284
333.22 K, 183 kPa, Gas | 0.01328
333.25 K, 176 kPa, Gas | 0.01293
333.35 K, 328 kPa, Gas | 0.0133
333.38 K, 113 kPa, Gas | 0.01357
333.44 K, 97 kPa, Gas | 0.01284
333.49 K, 257 kPa, Gas | 0.01337
333.5 K, 97 kPa, Gas | 0.01356
333.54 K, 333 kPa, Gas | 0.01313
333.58 K, 176 kPa, Gas | 0.01292
333.66 K, 182 kPa, Gas | 0.01345
333.78 K, 328 kPa, Gas | 0.01326
333.82 K, 113 kPa, Gas | 0.0136
333.93 K, 255 kPa, Gas | 0.01332
333.94 K, 97 kPa, Gas | 0.01368
334.01 K, 333 kPa, Gas | 0.01329
334.14 K, 180 kPa, Gas | 0.01351
334.25 K, 328 kPa, Gas | 0.01327
334.31 K, 112 kPa, Gas | 0.01357
334.41 K, 97 kPa, Gas | 0.01363
334.42 K, 254 kPa, Gas | 0.0134
